Experimental data as given in ChEMBL document CHEMBL1157675, “Anti-inflammatory diterpenes from the seeds of Vitex negundo” (Bioorg Med Chem, 2010).
The source made the active and inactive calls. No cut-off for these calls is given here.

Assays:
[1] = system: RAW264.7; experiment: Antiinflammatory activity in mouse RAW264.7 cells assessed as inhibition of LPS-induced NO production after 24 hrs by Griess reagent method; assay type: functional, cell-based; conditions: RAW264.7, 24 h
[2] = system: RAW264.7; experiment: Cytotoxicity against mouse RAW264.7 cells up to 50 uM after 24 hrs by MTT assay; assay type: cell-based; conditions: raw264.7, 24 h
[3] = system: RAW264.7; experiment: Antiinflammatory activity in LPS-stimulated mouse RAW264.7 cells assessed as reduction of COX2 protein expression at 5 uM after 24 hrs by Western blot analysis relative to control; assay type: functional; conditions: for response, % of control at 5 µM: RAW264.7, 24 h, values are per cent of control
[4] = system: RAW264.7; experiment: Antiinflammatory activity in LPS-stimulated mouse RAW264.7 cells assessed as reduction of iNOS protein expression at 5 uM after 24 hrs by Western blot analysis relative to control; assay type: functional; conditions: RAW264.7, 24 h, values are per cent of control
[5] = system: RAW264.7; experiment: Antiinflammatory activity in LPS-stimulated mouse RAW264.7 cells assessed as reduction of COX2 protein expression at 50 uM after 24 hrs by Western blot analysis relative to control; assay type: functional; conditions: RAW264.7, 24 h
[6] = system: RAW264.7; experiment: Antiinflammatory activity in LPS-stimulated mouse RAW264.7 cells assessed as reduction of iNOS protein expression at 50 uM after 24 hrs by Western blot analysis relative to control; assay type: functional; conditions: RAW264.7, 24 h

Compound | IC50 [1] | Activity [2] | inhibition [3] | response, % of control at 5 µM [4] | inhibition at 50 µM [5] | inhibition at 50 µM [6] | response, % of control at 5 µM [3]
CO[C@H]1OC(=O)C[C@@]12CC[C@@]1(O2)[C@H](C)CC[C@H]2C(C)(C)[C@@H](OC(C)=O)CC[C@@]21C (relative stereo) [NEGUNDOIN D] | 4390 nM | Non-toxic | inactive | 62% | – | – | –
CC(=O)O[C@H]1CC[C@@]2(C)[C@@H](CC[C@@H](C)[C@]23CC/C(=C\C(=O)O)O3)C1(C)C (relative stereo) [NEGUNDOIN B] | 23400 nM | Non-toxic | – | – | – | – | –
COc1ccc2c(c1)c(CC(=O)O)c(C)n2C(=O)c1ccc(Cl)cc1 [INDOMETHACIN] | 45500 nM | – | – | – | 59.9% | 86.5% | –
CC(=O)O[C@H]1CC[C@@]2(C)[C@@H](CC[C@@H](C)[C@]23CC[C@@]2(CCO[C@H]2O)O3)C1(C)C (relative stereo) [NEGUNDOIN E] | 230 nM | Non-toxic | – | 41% | – | – | 26.4%
C=C[C@@]1(C)CCC2C(=C[C@@H](O)[C@H]3C(C)(C)CCC[C@]23CO)C1=O (relative stereo) [NEGUNDOIN G] | 700 nM | Non-toxic | – | – | – | – | –
COC(=O)/C=C1\CC[C@@]2(O1)[C@H](C)CC[C@H]1C(C)(C)[C@@H](OC(C)=O)CC[C@@]12C (relative stereo) [NEGUNDOIN A] | 9830 nM | Non-toxic | inactive | 68.2% | – | – | –
CC(=O)O[C@H]1CC[C@@]2(C)[C@@H](CC[C@@H](C)[C@]23CC/C(=C\C=O)O3)C1(C)C (relative stereo) [NEGUNDOIN C] | 120 nM | Non-toxic | – | 0.4% | – | – | 2.06%
CC(C)c1ccc(O)c(CC[C@@H]2[C@@H](C)CC[C@H](O)C2(C)C)c1 (relative stereo) [NEGUNDOIN F] | 1160 nM | Non-toxic | – | 58.2% | – | – | 59.7%
